The text below walks through data of paper PMC9822155, “Synthesis and Antiproliferative Activity against Cancer Cells of Indole-Aryl-Amide Derivatives” (Molecules, 2022).

In one experiment the target is T1, κ-OR (Homo sapiens, UniProt P41145).
T1 construct: purchased PerkinElmer (Krakow, Poland); host or cells: CHO cells (membranes)
As to the kind of experiment: Radioligand binding assay, κ-OR ([3H]U-69593 displacement). Conditions: [3H]U-69593, membranes of CHO cells with human recombinant OR; ± SEM (n ≥ 3). How it is done:
(§1) In order to evaluate the affinity of the compounds for μ-, δ-, κ-ORs, radioligand binding assays were performed. Displacement of radioligands, [^3H]DAMGO (μ-OR selective), [^3H]deltorphin-2 (δ-OR selective), and [^3H]U-69593 (κ-OR selective) by the synthetic analogs was investigated in the commercial membranes of CHO cells transfected with human recombinant ORs. […] Due to the modest receptor affinities, the functional activity of the compounds was not investigated.
(§2) Opioid radioligands, [^3H]DAMGO, [^3H]deltorphin-2 and [^3H]U-69593, and human recombinant opioid receptors came from PerkinElmer (Krakow, Poland). GF/B glass fiber strips were purchased from Whatman (Brentford, UK).
(§3) To determine the affinity of peptide analogs at the respective receptors, competition binding experiments were performed. Commercial membranes of CHO cells stably expressing human opioid receptors and the competing radioligands, [^3H]DAMGO, [^3H]deltorphin-2, and [^3H]U-69593 for μ-OR, δ-OR, and κ-OR, respectively, were used. Membranes were incubated in 0.5 mL volume of 50 mM Tris/HCl (pH = 7.4), 0.5% bovine serum albumin (BSA), with a number of peptidase inhibitors (bacitracin, bestatin, captopril) and various concentrations of radioligands for 2 h at 25 °C. Non-specific binding was assessed in the presence of […]. Three independent experiments for each assay were carried out in duplicate. The data were analyzed by a nonlinear least square regression analysis computer program Graph Pad PRISM 6.0 (Graph Pad Software Inc., San Diego, CA, USA). The IC50 values were determined from the logarithmic concentration-displacement curves, and the values of the inhibitory constants (Ki) were calculated according to the equation of Cheng and Prusoff.

The subject of experiment [1] is HeLa (human cervical carcinoma) cells. Nature of the experiment: MTT viability assay, HeLa. Conditions: for Selectivity Index IC503T3/ IC50HeLa: 3T3 normal cells as reference; for IC50: Homo sapiens, MTT, 24 h; for Selectivity Index IC50I407/ IC50HeLa: I407 normal cells as reference. Format: cell-based. An excerpt:
(§4) To investigate whether the compounds have an antitumor activity, we performed in vitro viability assays against a panel of cancer cell lines: HT29 (human colorectal adenocarcinoma), HeLa (human cervical carcinoma), IGROV-1 (human ovarian carcinoma), MCF7 (human breast cancer), PC-3 (human prostate adenocarcinoma), and Jurkat J6 (human […]). The I407 (human embryonic intestinal) and 3T3 (mouse embryonic fibroblast) cells were used as controls. The growth inhibitory concentration was determined by incubating the cells with increasing concentrations (0.01–500 μM) of the compounds for 24 h. Data obtained from cell growth assays were elaborated to assess the concentration of cell viability (IC50) and selectivity indices (SI), and the results are shown in Table 2 and Table 3, respectively.
(§5) HT29 human colorectal adenocarcinoma cells, HeLa human cervix adenocarcinoma cells, MCF7 human breast adenocarcinoma cells, PC-3 human prostate adenocarcinoma cells, J6 Jurkat Clone E6-1 acute T cell leukemia, the healthy I407 human intestine cells, and mouse embryonic fibroblast 3T3 fibroblasts as controls cell lines were purchased from American Type Culture Collection (ATCC, Manassas, VA). The human ovarian cancer cell line IGROV1 has been kindly provided by Prof. Colnaghi (Istituto Nazionale Tumori (IRCCS) (Milano, Italy). Cells were cultured in RPMI 1640 medium (Labtek Eurobio, Milan, Italy), supplemented with 10% FCS (Euroclone, Milano, Italy) and 2 mM L-glutamine (Sigma-Aldrich, Milano, Italy), at 37 °C, and a 5% CO2 atmosphere. The compounds were dissolved in DMSO in a 30–40 mM stock solution. In cell treatments, the final DMSO concentration never exceeded 0.1%.
(§6) Cells were seeded at 1.5 × 10^4 cells/well in a 96-well culture plastic plate (Sarsted, Milan, Italy), and after 24 h of growth were exposed to increasing concentrations of each distinct compound (from 0.010 μM to 500 μM) solubilized in RPMI 1640 medium. MTT assay was performed according to the literature. In brief, after 24 h of treatment, the culture medium was replaced with 0.1 mL of 3-(4,5-dimethylthiazolyl-2)-2,5-diphenyltetrazolium bromide (MTT, Sigma-Aldrich, Milano, Italy) dissolved in PBS at the concentration of 0.2 mg/mL, and samples were incubated for 2 h at 37 °C. The absorbance at 570 nm was measured using a multiwell plate reader (Tecan, Männemorf, Switzerland), and data were analyzed by Prism GraphPad software, and expressed as IC50 μM.
(In general: Tetrazolium assays rely on reduction of a dye to a coloured formazan, in cell work by metabolically active cells.)

Experiment [2] concerns HT29 (human colorectal adenocarcinoma) cells. As to the kind of experiment: MTT viability assay, HT29. It is filed as cell-based. Particulars: for Selectivity Index IC503T3/ IC50HT29: 3T3 normal cells as reference; for IC50: Homo sapiens, HT-29, MTT, 24 h.
Description: as §4, §5, §6

Experiment [3] deals with I407 (human embryonic intestinal) cells. Nature of the experiment: MTT viability assay, I407. Particulars: Homo sapiens, 24 h, normal cells. It is filed as cell-based.
Description: as §4, §5, §6

For experiment [4], the system named is PC-3 (human prostate adenocarcinoma) cells. Nature of the experiment: MTT viability assay, PC3. It is filed as cell-based. Conditions: for IC50: Homo sapiens, MTT, 24 h.
Description: as §4, §5, §6

For the next experiment, the system named is Jurkat J6 cells. Nature of the experiment: MTT viability assay, Jurkat J6. Format: cell-based, human. Conditions: Homo sapiens, Jurkat; MTT, 24 h.
Description: as §4, §5, §6

Experiment [5] deals with IGROV-1 (human ovarian carcinoma) cells. As to the kind of experiment: MTT viability assay, IGROV-1. Format: cell-based. Particulars: 24 h.
Description: as §4, §5, §6

The target in another experiment is T2, δ-OR (Homo sapiens, UniProt P41143).
T2 construct: purchased PerkinElmer (Krakow, Poland); host or cells: CHO cells (membranes)
T2 sequence (P41143 whole entry): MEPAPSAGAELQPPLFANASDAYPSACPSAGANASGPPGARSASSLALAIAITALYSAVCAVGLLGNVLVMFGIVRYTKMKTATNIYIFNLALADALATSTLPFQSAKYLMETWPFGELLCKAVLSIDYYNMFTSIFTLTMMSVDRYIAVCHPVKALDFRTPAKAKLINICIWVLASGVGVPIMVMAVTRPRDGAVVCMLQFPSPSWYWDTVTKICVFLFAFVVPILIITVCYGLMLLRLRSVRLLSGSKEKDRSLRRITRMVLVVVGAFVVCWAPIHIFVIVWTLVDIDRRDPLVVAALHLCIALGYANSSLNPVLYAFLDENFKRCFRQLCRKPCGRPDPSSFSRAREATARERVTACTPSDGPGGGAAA
As to the kind of experiment: Radioligand binding assay, δ-OR ([3H]deltorphin-2 displacement). Conditions: [3H]deltorphin-2, membranes of CHO cells with human recombinant OR; ± SEM (n ≥ 3). On the procedure: as §1, §2, §3

Experiment [6] has as its system 3T3 (mouse embryonic fibroblast) cells. Nature of the experiment: MTT viability assay, 3T3. It is filed as cell-based. Particulars: 24 h, normal cells.
Description: as §4, §5, §6

For experiment [7], the system named is MCF7 (human breast cancer) cells. Nature of the experiment: MTT viability assay, MCF7. Conditions: for IC50: Homo sapiens, MCF7, MTT, 24 h. Format: cell-based.
Description: as §4, §5, §6

A further experiment has as its target T3, μ-OR (Homo sapiens, UniProt P35372).
T3 construct: purchased PerkinElmer (Krakow, Poland); host or cells: CHO cells (membranes)
Nature of the experiment: Radioligand binding assay, μ-OR ([3H]DAMGO displacement). Particulars: membranes of CHO cells with human recombinant OR, ± SEM (n ≥ 3). How it is done:
as §1, §2, §3

T3 sequence (P35372 whole entry): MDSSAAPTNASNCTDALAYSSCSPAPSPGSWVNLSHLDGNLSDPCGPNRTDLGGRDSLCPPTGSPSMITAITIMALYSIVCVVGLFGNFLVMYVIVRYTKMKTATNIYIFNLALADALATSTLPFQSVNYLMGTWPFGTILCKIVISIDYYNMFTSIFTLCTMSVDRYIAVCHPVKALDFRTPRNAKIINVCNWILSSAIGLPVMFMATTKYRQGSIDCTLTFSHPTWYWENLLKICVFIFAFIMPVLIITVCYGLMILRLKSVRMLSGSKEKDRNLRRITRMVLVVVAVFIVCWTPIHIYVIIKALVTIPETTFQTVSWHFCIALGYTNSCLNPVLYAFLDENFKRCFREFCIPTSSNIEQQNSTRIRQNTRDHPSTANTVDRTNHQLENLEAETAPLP
T1 sequence (P41145 whole entry): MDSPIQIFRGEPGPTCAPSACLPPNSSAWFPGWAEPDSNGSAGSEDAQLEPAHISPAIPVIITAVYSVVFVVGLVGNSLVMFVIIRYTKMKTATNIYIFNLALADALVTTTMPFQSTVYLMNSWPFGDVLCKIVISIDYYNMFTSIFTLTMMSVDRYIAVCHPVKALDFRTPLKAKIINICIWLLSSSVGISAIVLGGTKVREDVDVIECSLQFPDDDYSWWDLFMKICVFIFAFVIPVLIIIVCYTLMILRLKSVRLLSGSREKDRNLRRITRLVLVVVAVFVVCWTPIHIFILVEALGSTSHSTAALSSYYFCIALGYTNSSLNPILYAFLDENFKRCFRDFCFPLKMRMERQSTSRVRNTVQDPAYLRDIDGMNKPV

On to `O=C(CCc1ccc(O)cc1)N(CCc1c[nH]c2ccccc12)Cc1ccccc1` [Compound 1], for which the Ki (in general, the equilibrium dissociation constant of an inhibitor or competing ligand from its target) was found to be 5 ± 2.9 µM on κ-OR and 37.1 ± 1.4 µM at δ-OR. Further, the “Selectivity Index IC503T3/ IC50HeLa” value in [1] is recorded as 6.572. In addition, the IC50 (in general, the point on the concentration scale where inhibition reaches its midpoint) was 25 ± 0.06 µM in experiment [1]; 0.31 ± 0.06 µM in experiment [2]; 63 ± 0.06 µM in experiment [3]; greater than 500 µM in experiment [4]; greater than 500 µM with Jurkat J6 cells; greater than 500 µM in experiment [5]. Further, the values for the IC50 in experiment [6] and in experiment [7] were 164.3 ± 0.01 µM and greater than 500 µM, respectively. In [1], the “Selectivity Index IC50I407/ IC50HeLa” value is 2.52. In addition, in experiment [2], the “Selectivity Index IC503T3/ IC50HT29” value was found to be 530. Further, the “Selectivity Index IC50I407/ IC50HT29” value in [2] (I407 normal cells as reference) is on record as 203.23.

As to `Nc1ccc(CC(=O)N(CCc2c[nH]c3ccccc23)Cc2ccccc2)cc1` [Compound 2], the results for the Ki at μ-OR, on κ-OR and at δ-OR were 54.6 ± 3.5 µM, 2.5 ± 0.4 µM and 9 ± 0.6 µM, respectively. Also, the “Ki (µM) κ-OR” value at κ-OR is recorded as “low μM range”. Further, the IC50 in experiment [1] was greater than 500 µM; in experiment [2], greater than 500 µM; in experiment [3] it was 0.35 ± 0.03 µM; in experiment [4] it was 2.13 ± 0.04 µM; with Jurkat J6 cells, greater than 500 µM; in experiment [5], greater than 500 µM. Further, the IC50 was greater than 500 µM in experiment [6] and 0.81 ± 0.03 µM in experiment [7]. For the same compound, the “Selectivity Index IC50I407/ IC50PC3” value in experiment [4] (I407 normal cells as reference) was determined as 0.164. Further, the “Selectivity Index IC50I407/ IC50MCF7” value in [7] (I407 normal cells as reference) is 0.432.

In the case of `Nc1ccc(CC(=O)Nc2ccc(CC(=O)N(CCc3c[nH]c4ccccc34)Cc3ccccc3)cc2)cc1` [Compound 3], the Ki at μ-OR was determined as 10.7 ± 1.7 µM; at κ-OR it was 7.8 ± 0.2 µM; on δ-OR, 6.5 ± 0.8 µM. Further, the “Selectivity Index IC503T3/ IC50HeLa” value in experiment [1] turned out to be 0.089. Also, the IC50 in experiment [1] was 5.64 ± 0.01 µM; in experiment [2], greater than 500 µM; in [3] it was 75 ± 0.07 µM; in experiment [4], greater than 500 µM; in the experiment with Jurkat J6 cells, greater than 500 µM; in experiment [5], greater than 500 µM. The IC50 is 0.5 ± 0.04 µM in [6] and greater than 500 µM in experiment [7]. The “Selectivity Index IC50I407/ IC50HeLa” value in experiment [1] is on record as 13.29.

For the compound `Nc1ccc(CNC(=O)Cc2c[nH]c3ccccc23)cc1` [Compound 4], the Ki at κ-OR was found to be 7.4 ± 1.3 µM. Also, the “Selectivity Index IC503T3/ IC50HeLa” value in experiment [1] was 0.337. Also, the IC50 was 1.87 ± 0.02 µM in experiment [1]; 0.96 ± 0.04 µM in experiment [2]; greater than 500 µM in experiment [3]; greater than 500 µM in experiment [4]; greater than 500 µM in the experiment with Jurkat J6 cells; greater than 500 µM in experiment [5]. In addition, the IC50 came to 0.63 ± 0.02 µM in experiment [6] and 0.84 ± 0.03 µM in [7]. Also, the “Selectivity Index IC503T3/ IC50HT29” value in [2] turned out to be 0.656. In addition, the “Selectivity Index IC503T3/ IC50MCF7” value in experiment [7] (3T3 normal cells as reference) came out at 0.75.

In the case of `NC(=O)CN(Cc1ccc(N)cc1)C(=O)Cc1c[nH]c2ccccc12` [Compound 6], the Ki amounted to 451 ± 11 µM at μ-OR, 26.7 ± 9.5 µM on κ-OR and 85.5 ± 2 µM on δ-OR. In addition, the IC50 is greater than 500 µM in [1]; greater than 500 µM in [2]; greater than 500 µM in [3]; 166 ± 0.03 µM in experiment [4]; greater than 500 µM with Jurkat J6 cells; greater than 500 µM in experiment [5]. For the same compound, the IC50 is 0.11 ± 0.03 µM in experiment [6] and greater than 500 µM in [7]. Besides, the “Selectivity Index IC503T3/ IC50PC3” value in [4] (3T3 normal cells as reference) is recorded as 0.001.

In the case of `Nc1ccc(CN(CCCO)C(=O)Cc2c[nH]c3ccccc23)cc1` [Compound 7], the Ki was 3.8 ± 0.3 µM on κ-OR and 115 ± 45 µM at δ-OR. Further, the “Ki (µM) κ-OR” value at κ-OR is listed as “low μM range”. The IC50 (in [1]; in experiment [2]; in experiment [3]; in experiment [4]; in the experiment on Jurkat J6 cells; in [5]) was greater than 500 µM in each case. Moreover, the IC50 is greater than 500 µM in [6] and 0.49 ± 0.01 µM in [7].
